In US9586958B2, “Prodrug derivatives of substituted triazolopyridines” (BAYER PHARMA AKTIENGESELLSCHAFT, priority 2013, dated 2017):

What was measured:
[1] = In vitro stability in rat plasma (HPLC detection); assay type: in vitro ADME; settings: 37° C.
Procedure: 1 mg of test compound is dissolved in 1.25 ml dimethylsulfoxide. Then 1.25 ml water are added. 0.5 ml of this sample solution are mixed with 0.5 ml heparinized and 37° C. warm plasma (wistar rat plasma or human plasma). A first sample (10 μl) is immediately taken for HPLC analysis. In the period up to 4 h after the start of incubation further 10 μl aliquots are taken after 30, 60, 90, 120 and 240 minutes and the amount of the test compound is determined.
Agilent 1100 with DAD (G1315A), binary pump (G1312A), autosampler (G1329A), column oven (G1316A), thermostat (G1330B); column: Kromasil 100 C18, 250 mm×4 mm, 5 μm; column temperature: 45° C.; eluent A: water+5 ml of perchloric acid/liter, eluent B: acetonitrile.

[2] = Stability in buffer at pH 7.4 (HPLC); assay type: physicochemical; settings: buffer pH 7.4, 37° C.
Procedure: 0.3 mg of the test compound are solved in 0.1 ml dimethylsulfoxide and 0.4 ml acetonitrile. For complete dissolution the HPLC vial with the sample solution is sonified for about 20 seconds. Then 1.0 ml of the buffer solution is added, and the sample is again treated in the ultrasonic bath.
90 g of sodium chloride, 13.61 g of potassium dihydrogen phosphate and 83.35 g of 1 M sodium hydroxide solution are made up to 1 liter with Millipore water and then diluted 1:10.
10 μl portions of the sample solution are analysed by HPLC to determine the amount of the test compound over a period of 24 hours at 37° C. The peak areas in percentage are used for quantification.
Agilent 1100 with DAD (G1315B), binary pump (G1312A), autosampler (G1329A), column oven (G1316A), thermostat (G1330B); column: Kromasil 100 C18, 250 mm×4 mm, 5 μm; column temperature: 37° C.; eluent A: water+5 ml of perchloric acid/liter, eluent B: acetonitrile.
The ratio of the peak areas (F) at different time points in relation to the peak areas at the starting time are shown in Table 2 for representative examples: […]

Row | SMILES | % Test Compound after 4 h [F(t = 24 h) × 100/F(t = 0 h)] [1] [%] | % Test Compound after 24 h [F(t = 24 h) × 100/F(t = 0 h)] [2] [%] | % Test Compound after 24 h [F(t = 24 h) × 100/F(t = 0 h)] ([2]; measured for formic acid salt)
1 | COc1cc(S(C)(=O)=O)ccc1N(C(=O)OC(C)OC(=O)[C@@H](NC(=O)[C@@H](N)CCCCN)C(C)C)c1nc2ccc(-c3ccc(NC(=O)[C@H](C)c4ccc(F)cc4)cc3)cn2n1.Cl.Cl (mixture of isomers) [Example 2.2, (1RS)-1-({[6-(4-{[(2R)-2-(4-fluorophenyl)propanoyl]amino}phenyl)[1,2,4]triazolo[1,5-α]pyridin-2-yl][2-methoxy-4-(methylsulfonyl)phenyl]carbamoyl}oxy)ethyl L-lysyl-L-valinate dihydrochloride] | 5 | 0.0 | 
2 | COc1cc(S(C)(=O)=O)ccc1N(C(=O)OC(C)OC(=O)[C@@H](NC(=O)[C@@H](N)C(C)C)C(C)C)c1nc2ccc(-c3ccc(NC(=O)[C@H](C)c4ccc(F)cc4)cc3)cn2n1.Cl (mixture of isomers) [Example 2.4, (1RS)-1-({[6-(4-{[(2R)-2-(4-fluorophenyl)propanoyl]amino}phenyl)[1,2,4]triazolo[1,5-α]pyridin-2-yl][2-methoxy-4-(methylsulfonyl)phenyl]carbamoyl}oxy)ethyl L-valyl-L-valinate hydrochloride] | 45 | 48 | 
3 | COc1cc(S(C)(=O)=O)ccc1N(C(=O)OC(C)OC(=O)[C@@H](N)C(C)C)c1nc2ccc(-c3ccc(NC(=O)[C@H](C)c4ccc(F)cc4)cc3)cn2n1.Cl (mixture of isomers) [Example 3.1, (1RS)-1-({[6-(4-{[(2R)-2-(4-fluorophenyl)propanoyl]amino}phenyl)[1,2,4]triazolo[1,5-α]pyridin-2-yl][2-methoxy-4-(methylsulfonyl)phenyl]carbamoyl}oxy)ethyl L-valinate hydrochloride] | 0.0 | 0.0 | 
4 | COc1cc(S(C)(=O)=O)ccc1N(C(=O)OC(C)OC(=O)[C@@H](N)C(C)(C)C)c1nc2ccc(-c3ccc(NC(=O)[C@H](C)c4ccc(F)cc4)cc3)cn2n1.Cl (mixture of isomers) [Example 3.2, (1RS)-1-({[6-(4-{[(2R)-2-(4-fluorophenyl)propanoyl]amino}phenyl)[1,2,4]triazolo[1,5-α]pyridin-2-yl][2-methoxy-4-(methylsulfonyl)phenyl]carbamoyl}oxy)ethyl 3-methyl-L-valinate hydrochloride] | 0.0 | 0.0 | 
5 | CC[C@H](C)[C@H](N)C(=O)OC(C)OC(=O)N(c1nc2ccc(-c3ccc(NC(=O)[C@H](C)c4ccc(F)cc4)cc3)cn2n1)c1ccc(S(C)(=O)=O)cc1OC.Cl (mixture of isomers) [Example 3.5, (1RS)-1-({[6-(4-{[(2R)-2-(4-fluorophenyl)propanoyl]amino}phenyl)[1,2,4]triazolo[1,5-α]pyridin-2-yl][2-methoxy-4-(methylsulfonyl)phenyl]carbamoyl}oxy)ethyl-L-isoleucinate hydrochloride] | 19 |  | 
6 | COc1cc(S(C)(=O)=O)ccc1N(C(=O)OC(OC(=O)[C@@H](N)C(C)(C)C)C(C)C)c1nc2ccc(-c3ccc(NC(=O)[C@H](C)c4ccc(F)cc4)cc3)cn2n1.Cl (mixture of isomers) [Example 5.1, (1RS)-1-({[6-(4-{[(2R)-2-(4-fluorophenyl)propanoyl]amino}phenyl)[1,2,4]triazolo[1,5-α]pyridin-2-yl][2-methoxy-4-(methylsulfonyl)phenyl]carbamoyl}oxy)-2-methylpropyl 3-methyl-L-valinate hydrochloride] | 19 | 21 | 
7 | COc1cc(S(C)(=O)=O)ccc1N(C(=O)OC(OC(=O)[C@@H](N)C(C)C)C(C)C)c1nc2ccc(-c3ccc(NC(=O)[C@H](C)c4ccc(F)cc4)cc3)cn2n1.Cl (mixture of isomers) [Example 5.4, (1RS)-1-({[6-(4-{[(2R)-2-(4-fluorophenyl)propanoyl]amino}phenyl)[1,2,4]triazolo[1,5-α]pyridin-2-yl][2-methoxy-4-(methylsulfonyl)phenyl]carbamoyl}oxy)-2-methylpropyl-L-valinate hydrochloride] | 44 | 17 | 
8 | COc1cc(S(C)(=O)=O)ccc1N(C(=O)OC(OC(=O)C(C)(C)N)C(C)C)c1nc2ccc(-c3ccc(NC(=O)[C@H](C)c4ccc(F)cc4)cc3)cn2n1.Cl (mixture of isomers) [Example 5.5, (1RS)-1-({[6-(4-{[(2R)-2-(4-fluorophenyl)propanoyl]amino}phenyl)[1,2,4]triazolo[1,5-α]pyridin-2-yl][2-methoxy-4-(methylsulfonyl)phenyl]carbamoyl}oxy)-2-methylpropyl-2-methylalaninate hydrochloride] | 33 |  | 
9 | CC[C@H](C)[C@H](N)C(=O)OC(C)OC(=O)N(c1nc2n(n1)CC(c1ccc(NC(=O)[C@H](C)c3ccc(F)cc3)cc1)C=C2)c1ccc(S(C)(=O)=O)cc1OC.Cl (single isomer, unassigned) [Example 3.6, (1S or 1R)-1-({[6-(4-{[(2R)-2-(4-fluorophenyl)propanoyl]amino}phenyl)[1,2,4]triazolo[1,5-α]pyridin-2-yl][2-methoxy-4-(methylsulfonyl)phenyl]carbamoyl}oxy)ethyl-isoleucinate hydrochloride] |  | 0.0 | 
10 | CC[C@H](C)[C@H](N)C(=O)OC(C)OC(=O)N(c1nc2ccc(-c3ccc(NC(=O)[C@H](C)c4ccc(F)cc4)cc3)cn2n1)c1ccc(S(C)(=O)=O)cc1OC.Cl (single isomer, unassigned) [Example 3.7, (1R or 1S)-1-({[6-(4-{[(2R)-2-(4-fluorophenyl)propanoyl]amino}phenyl)[1,2,4]triazolo[1,5-α]pyridin-2-yl][2-methoxy-4-(methylsulfonyl)phenyl]carbamoyl}oxy)ethyl-L-isoleucinate hydrochloride] |  | 0.0 | 
11 | COc1cc(S(C)(=O)=O)ccc1N(C(=O)OCOC(=O)C1CCNCC1)c1nc2ccc(-c3ccc(NC(=O)[C@H](C)c4ccc(F)cc4)cc3)cn2n1.O=C(O)C(F)(F)F [Example 1.1, ({[6-(4-{[(2R)-2-(4-fluorophenyl)propanoyl]amino}phenyl)[1,2,4]triazolo[1,5-α]pyridin-2-yl][2-methoxy-4-(methylsulfonyl)phenyl]carbamoyl}oxy)methyl piperidine-4-carboxylate trifluoroacetate] |  |  | 35.0 *) %
12 | COc1cc(S(C)(=O)=O)ccc1N(C(=O)OCOC(=O)[C@@H](N)CC(C)C)c1nc2ccc(-c3ccc(NC(=O)[C@H](C)c4ccc(F)cc4)cc3)cn2n1.Cl [Example 1.3, ({[6-(4-{[(2R)-2-(4-fluorophenyl)propanoyl]amino}phenyl)[1,2,4]triazolo[1,5-α]pyridin-2-yl][2-methoxy-4-(methylsulfonyl)phenyl]carbamoyl}oxy)methyl L-leucinate hydrochloride] | 0.0 |  | 
13 | COc1cc(S(C)(=O)=O)ccc1N(C(=O)OCOP(=O)(O)O)c1nc2ccc(-c3ccc(NC(=O)[C@H](C)c4ccc(F)cc4)cc3)cn2n1 [Example 1.6, (phosphonooxy)methyl [6-(4-{[(2R)-2-(4-fluorophenyl)propanoyl]amino}phenyl)[1,2,4]triazolo[1,5-α]pyridin-2-yl][2-methoxy-4-(methylsulfonyl)phenyl]carbamate] | 0.0 |  | 
14 | CC(C)[C@H](N)C(=O)OCOC(=O)N(c1nc2ccc(-c3ccc(NC(=O)[C@H](C)c4ccc(F)cc4)cc3)cn2n1)c1ccc(S(C)(=O)=O)cc1OCC(F)(F)F.Cl [Example 6.2, ({[6-(4-{[(2R)-2-(4-fluorophenyl)propanoyl]amino}phenyl)[1,2,4]triazolo[1,5-α]pyridin-2-yl][4-(methylsulfonyl)-2-(2,2,2-trifluoroethoxy)phenyl]carbamoyl}oxy)methyl L-valinate hydrochloride] | 6 |  | 
15 | CNCC(=O)N(c1nc2ccc(-c3ccc(NC(=O)[C@H](C)c4ccc(F)cc4)cc3)cn2n1)c1ccc(S(C)(=O)=O)cc1OC.O=C(O)C(F)(F)F [Example 8.1, (2R)-2-(4-fluorophenyl)-N-[4-(2-{[2-methoxy-4-(methylsulfonyl)phenyl](N-methylglycyl)amino}[1,2,4]triazolo[1,5-α]pyridin-6-yl)phenyl]propanamide trifluoroacetate] | 57 |  | 
